Measured values from US20260091082A1, “CYCLIC PEPTIDE DERIVATIVE COMPOSITION FOR TREATING OR PREVENTING EYE DISEASE” (DKS Co. Ltd., priority 2022, published 2026).
Several values for one entry are separate records, joined by “and”; a condition that tells them apart may be missing. Equal entries are not always repeated.

Test system: anterior chamber aqueous humor pressure load rat model
Experiment: Retinal thickness (IPL, INL, ONL) in retinal damage model induced by anterior chamber aqueous humor pressure load
Format: in vivo, Rat; Slc: SD
Settings: for Thickness of IPL (μm) / Thickness of ONL (μm) / Thickness of INL (μm): 14 days after model creation, mean ± S.E., 10 animals
Experimental: • Name: Compound 9 • Source: Synthesized in the above Examples • Used amount: 0.4 mL (50 mg/mL solution) • Storage conditions: Freezing, light shielding
Method for preparing test substance (1 mg/mL): A high concentration solution prepared at 50 mg/mL was diluted 50 times with a medium to prepare a 1 mg/mL administration solution.
• Name: MK-801 • Distributor: SIGMA-ALDRICH • Use amount: 0.0501 g • Storage condition: refrigerated (2° C. to 8° C.)
Method for preparing positive control substance (10 mg/mL): 0.0501 g was weighed out and made up to a total volume of 5 mL with a control substance (physiological saline).
• Species and strains: Rat; Slc: SD • Number of animals on arrival and sex: 50 males • Age in weeks at arrival: 6 weeks old • Body weight range at arrival: 147.2 to 170.0 g • Source: Japan SLC, Inc.
Grouping was performed two days before the first creation of the retinal damage model induced by an anterior chamber aqueous humor pressure load. Using the daily body weight as an index, stratified random allocation was performed using SAS (Ver. 9.3, SAS Institute Japan Ltd.) and EXSUS (Ver. 8.0, CAC Croit Corporation) so that an average value of the body weights of each group was approximately uniform.
• Administration route: Eyedrop administration, intravenous administration • Administration method (eyedrop): Eyedrop administration was performed on a treated eye (right eye) of a rat using a micropipette 4 times a day (at intervals of 1.5 hours or more). • Administration method (intravenous): The amount of administration solution, calculated from the body weight on the day of administration, was administered from the tail vein using a syringe and an injection needle about 30 minutes before ischemic load. • Time of administration: Administration was performed according to the following schedule.
1. 10 mg/kg xylazine hydrochloride was intramuscularly administered on the model creation day (day 0). A rat was placed in an anesthesia box and subjected to general anesthesia with isoflurane (5%, oxygen:nitrous oxide=1:3). When anesthesia was effective, the rat was taken out of the anesthesia box, an inhalation anesthetic mask was worn, and anesthesia was maintained with isoflurane (1% to 5%, oxygen nitrous oxide=1:3).
2. The body temperature was maintained at 37° C. with a warming mat, and a mydrin P ophthalmic solution was instilled in the right eye (treated eye) of the rat to dilate the pupil, then the cravit ophthalmic solution 1.5% (Santen Pharmaceutical Co., Ltd.) was instilled.
3. A bottle of an IV bag containing physiological saline was previously suspended so that a water surface was 155 cm (100 mmHg or more) higher than the eye of the rat. The IV bag was connected to a pediatric infusion set (Terumo Corporation), a 27 G injection needle thereof was inserted into and fixed to the anterior chamber while slightly dripping the liquid from a needle tip. The model was created in the light phase (6:00 to 18:00) in consideration of the diurnal variation of the intraocular pressure.
4. After the needle was inserted into the anterior chamber, pressure (100 mmHg or more) was loaded and maintained in the anterior chamber by associating the reflux system.
5. After an ischemic load for 45 minutes, the injection needle and the like were removed, the inhalation anesthetic mask was removed, and the rat was sufficiently woken up under a warming mat, and then returned to the cage.
6. For 2 days after surgery, 10 mg/kg xylazine hydrochloride was intramuscularly administered as an analgesic for the purpose of alleviating the pain after the treatment.
1. Fourteen days after model creation, general anesthesia was performed with isoflurane (5%, oxygen:nitrous oxide=1:3), euthanasia was then performed by exsanguination, a suture was placed as a marker at the 12 o'clock position of the ocular conjunctiva, and eyeball enucleation was performed.
2. […]

[1] = 600 μm from optic disk, 1 mg/mL eye drop 4 times/day for 13 days from the day after model creation (test group 3)
[2] = 600 μm from optic disk, 1 mg/mL eye drop 4 times/day for 13 days from the day after model creation (test group 3), listed as compound 9
[3] = 600 μm from optic disk, (pre) 1 mg/mL eye drop 4 times/day on the 2 days before model creation (test group 2)
[4] = 600 μm from optic disk, (pre) 1 mg/mL eye drop 4 times/day on the 2 days before model creation (test group 2), listed as compound 9
[5] = 900 μm from optic disk, 1 mg/mL eye drop 4 times/day for 13 days from the day after model creation (test group 3)
[6] = 900 μm from optic disk, 1 mg/mL eye drop 4 times/day for 13 days from the day after model creation (test group 3), listed as compound 9
[7] = 900 μm from optic disk, (pre) 1 mg/mL eye drop 4 times/day on the 2 days before model creation (test group 2)
[8] = 900 μm from optic disk, (pre) 1 mg/mL eye drop 4 times/day on the 2 days before model creation (test group 2), listed as compound 9

Structure (SMILES): CC[C@@]1(C)Oc2cc(ccc2O)C[C@H](NC)C(=O)N[C@@H](C(C)C)C(=O)N[C@@H]1C(=O)N[C@@H](CC(=O)O)C(=O)O [Compound 9]
- Thickness of IPL (μm) [1]: 42.95±1.07 μm
- Thickness of ONL (μm) [1]: 42.33±1.81 μm
- Thickness of INL (μm) [2]: 31.48 ± 1.26 μm
- Thickness of ONL (μm) [2]: 42.33 ± 1.81 μm
- Thickness of INL (μm) [3]: 31.25±1.29 μm
- Thickness of IPL (μm) [3]: 38.85±1.23 μm
- Thickness of ONL (μm) [3]: 43.03±0.82 μm
- Thickness of INL (μm) [4]: 31.25 ± 1.29 μm
- Thickness of ONL (μm) [4]: 43.03 ± 0.82 μm
- Thickness of IPL (μm) [5]: 44.32±1.47 μm
- Thickness of ONL (μm) [5]: 39.42±1.92 μm
- Thickness of INL (μm) [6]: 28.71 ± 1.67 μm
- Thickness of ONL (μm) [6]: 39.42 ± 1.92 μm
- Thickness of INL (μm) [7]: 30.39±1.24 μm
- Thickness of IPL (μm) [7]: 41.51±1.27 μm
- Thickness of ONL (μm) [7]: 42.55±1.13 μm
- Thickness of INL (μm) [8]: 30.39 ± 1.24 μm
- Thickness of ONL (μm) [8]: 42.55 ± 1.13 μm
- Inhibitory effect on retinal damage induced by ischemia of aqueous humor pressure load (anterior chamber aqueous humor pressure load rat model, overall conclusion): inhibitory effect on retinal damage induced by ischemia of aqueous humor pressure load was observed
- Thickness of ONL, distance from optic disk 600 μm (single measurement) (compound 9 (pre), 1 mg/mL eye drop, right eye, individual animals 201-210): 41.121 μm and 44.598 μm and 41.326 μm (2×) and 41.066 μm and 41.161 μm and 38.743 μm and 41.131 μm and 38.275 μm and 37.963 μm and 43.645 μm and 43.106 μm and 45.168 μm and 47.317 μm and 40.325 μm and 41.137 μm and 43.653 μm and 45.150 μm and 48.296 μm and 46.805 μm and 44.685 μm and 46.160 μm and 42.772 μm and 45.479 μm and 40.612 μm and 40.588 μm and 46.031 μm and 41.299 μm and 42.932 μm and 48.910 μm
